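Step 1: Grow cells in 96-well plates. Step 2: Expose to compound for 48 hours at 5 concentrations. Step 3: Interpolate endpoints linearly; if unreached, use highest concentration. GI50: concentration for 50% inhibition of growth. The concentration for full growth arrest is given as TGI.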
Tests used:
Assay in all cases: NCI-60 cell line screen, 48 h
786-0 renal = test system: 786-0 renal
PC-3 prostate = test system: PC-3 prostate
NCI-H460 lung = test system: NCI-H460 lung
LOX IMVI melanoma = test system: LOX IMVI melanoma
M14 melanoma = test system: M14 melanoma
OVCAR-5 ovarian = test system: OVCAR-5 ovarian
NCI/ADR-RES ovarian = test system: NCI/ADR-RES ovarian
A498 renal = test system: A498 renal
A549 NSCLC = test system: A549 NSCLC
NCI-H23 lung = test system: NCI-H23 lung

CNC(=O)c1cn(C[C@H](F)CCc2ccc(NC(=O)Cc3cc(OC4CC(F)(F)C4)cc(C)n3)nn2)nn1
GI50 (786-0 renal): > 100 µM
TGI (786-0 renal): > 100 µM
GI50 (PC-3 prostate): > 100 µM
TGI (PC-3 prostate): > 100 µM
GI50 (NCI-H460 lung): > 100 µM
TGI (NCI-H460 lung): > 100 µM
GI50 (LOX IMVI melanoma): > 100 µM
TGI (LOX IMVI melanoma): > 100 µM
GI50 (M14 melanoma): > 100 µM
TGI (M14 melanoma): > 100 µM
GI50 (OVCAR-5 ovarian): > 100 µM
TGI (OVCAR-5 ovarian): > 100 µM
GI50 (NCI/ADR-RES ovarian): > 100 µM
TGI (NCI/ADR-RES ovarian): > 100 µM
GI50 (A498 renal): 0.0854 µM
TGI (A498 renal): 1.27 µM
GI50 (A549 NSCLC): 0.0594 µM
TGI (A549 NSCLC): > 100 µM
GI50 (NCI-H23 lung): > 100 µM
TGI (NCI-H23 lung): > 100 µM

Cc1c(-c2nc(N)nc(C3CC3)c2C)nc(N)nc1C1CC1
TGI (786-0 renal): > 100 µM
TGI (PC-3 prostate): > 100 µM
TGI (NCI-H460 lung): > 100 µM
TGI (LOX IMVI melanoma): > 100 µM
TGI (M14 melanoma): > 100 µM
TGI (OVCAR-5 ovarian): > 100 µM
TGI (NCI/ADR-RES ovarian): > 100 µM
TGI (A498 renal): > 100 µM
TGI (A549 NSCLC): > 100 µM
TGI (NCI-H23 lung): > 100 µM

COC(=O)c1c(O)ccc2[nH]c(C)c(C#N)c12
GI50 (786-0 renal): 31.6 µM
TGI (786-0 renal): > 100 µM
GI50 (PC-3 prostate): 38.7 µM
TGI (PC-3 prostate): > 100 µM
GI50 (NCI-H460 lung): 37.3 µM
TGI (NCI-H460 lung): > 100 µM
GI50 (LOX IMVI melanoma): 30.9 µM
TGI (LOX IMVI melanoma): > 100 µM
GI50 (M14 melanoma): 25.9 µM
TGI (M14 melanoma): > 100 µM
GI50 (OVCAR-5 ovarian): > 100 µM
TGI (OVCAR-5 ovarian): > 100 µM
GI50 (NCI/ADR-RES ovarian): > 100 µM
TGI (NCI/ADR-RES ovarian): > 100 µM
GI50 (A498 renal): 20.7 µM
TGI (A498 renal): 54.2 µM
GI50 (A549 NSCLC): 41.1 µM
TGI (A549 NSCLC): > 100 µM
GI50 (NCI-H23 lung): 77.1 µM
TGI (NCI-H23 lung): > 100 µM

CNc1nc(NC2CCCC2)nc(Sc2ccc(OC)cc2)n1
GI50 (786-0 renal): > 10 µM
TGI (786-0 renal): > 10 µM
GI50 (PC-3 prostate): > 10 µM
TGI (PC-3 prostate): > 10 µM
GI50 (NCI-H460 lung): > 10 µM
TGI (NCI-H460 lung): > 10 µM
GI50 (LOX IMVI melanoma): > 10 µM
TGI (LOX IMVI melanoma): > 10 µM
GI50 (M14 melanoma): > 10 µM
TGI (M14 melanoma): > 10 µM
GI50 (OVCAR-5 ovarian): > 10 µM
TGI (OVCAR-5 ovarian): > 10 µM
GI50 (NCI/ADR-RES ovarian): > 10 µM
TGI (NCI/ADR-RES ovarian): > 10 µM
GI50 (A498 renal): > 10 µM
TGI (A498 renal): > 10 µM
GI50 (A549 NSCLC): > 10 µM
TGI (A549 NSCLC): > 10 µM
GI50 (NCI-H23 lung): > 10 µM
TGI (NCI-H23 lung): > 10 µM

FC(F)(F)c1ccc2c(Nc3cccc(C4CC(c5ccccc5)=NN4c4ccc(Cl)cc4)c3)ccnc2c1 (stereo not given)
GI50 (786-0 renal): 2.73 µM
TGI (786-0 renal): 10.7 µM
GI50 (PC-3 prostate): 3.77 µM
TGI (PC-3 prostate): 16.6 µM
GI50 (NCI-H460 lung): 4.08 µM
TGI (NCI-H460 lung): 17.2 µM
GI50 (LOX IMVI melanoma): 1.68 µM
TGI (LOX IMVI melanoma): 3.81 µM
GI50 (M14 melanoma): 3.93 µM
TGI (M14 melanoma): 22 µM
GI50 (OVCAR-5 ovarian): 4.13 µM
TGI (OVCAR-5 ovarian): 20.5 µM
GI50 (NCI/ADR-RES ovarian): 2.63 µM
TGI (NCI/ADR-RES ovarian): 10.3 µM
GI50 (A498 renal): 9.9 µM
TGI (A498 renal): 45.6 µM
GI50 (A549 NSCLC): 10.7 µM
TGI (A549 NSCLC): 44.8 µM
GI50 (NCI-H23 lung): 4.22 µM
TGI (NCI-H23 lung): 25.3 µM

CN(C)CCNC(=O)Nc1c(C#N)[n+]([O-])c2cc(Cl)c(Cl)cc2[n+]1[O-]
GI50 (786-0 renal): 35.8 µM
TGI (786-0 renal): > 100 µM
GI50 (PC-3 prostate): 18.4 µM
TGI (PC-3 prostate): > 100 µM
GI50 (NCI-H460 lung): 21.1 µM
TGI (NCI-H460 lung): > 100 µM
GI50 (LOX IMVI melanoma): 18.3 µM
TGI (LOX IMVI melanoma): > 100 µM
GI50 (M14 melanoma): 21.9 µM
TGI (M14 melanoma): > 100 µM
GI50 (OVCAR-5 ovarian): 87.1 µM
TGI (OVCAR-5 ovarian): > 100 µM
GI50 (NCI/ADR-RES ovarian): > 100 µM
TGI (NCI/ADR-RES ovarian): > 100 µM
GI50 (A498 renal): 51.6 µM
TGI (A498 renal): > 100 µM
GI50 (A549 NSCLC): 34 µM
TGI (A549 NSCLC): > 100 µM
GI50 (NCI-H23 lung): 27 µM
TGI (NCI-H23 lung): > 100 µM

NCCN1CCN(c2nccc(-c3ccc4ccccc4c3)n2)CC1
GI50 (786-0 renal): 1.69 µM
TGI (786-0 renal): 3.17 µM
GI50 (PC-3 prostate): 1.86 µM
TGI (PC-3 prostate): 4.36 µM
GI50 (NCI-H460 lung): 1.91 µM
TGI (NCI-H460 lung): 3.69 µM
GI50 (LOX IMVI melanoma): 1.76 µM
TGI (LOX IMVI melanoma): 3.31 µM
GI50 (M14 melanoma): 1.89 µM
TGI (M14 melanoma): 3.54 µM
GI50 (OVCAR-5 ovarian): 1.85 µM
TGI (OVCAR-5 ovarian): 4.04 µM
GI50 (NCI/ADR-RES ovarian): 2.48 µM
TGI (NCI/ADR-RES ovarian): 6.71 µM
GI50 (A498 renal): 1.59 µM
TGI (A498 renal): 3.3 µM
GI50 (A549 NSCLC): 1.86 µM
TGI (A549 NSCLC): 3.43 µM
GI50 (NCI-H23 lung): 4.17 µM
TGI (NCI-H23 lung): 16.5 µM

COc1cc(-c2cn(C)c(=O)c(C)c2C)cc(OC)c1CN1CC[C@H](N2CCN(c3ccc(N[C@H]4CCC(=O)NC4=O)cc3F)CC2)C(F)(F)C1
GI50 (786-0 renal): 12.8 µM
TGI (786-0 renal): 36.6 µM
GI50 (PC-3 prostate): 11 µM
TGI (PC-3 prostate): 47.1 µM
GI50 (NCI-H460 lung): 15.5 µM
TGI (NCI-H460 lung): 32.4 µM
GI50 (LOX IMVI melanoma): 11.5 µM
TGI (LOX IMVI melanoma): 24.9 µM
GI50 (M14 melanoma): 12.2 µM
TGI (M14 melanoma): 27.7 µM
GI50 (OVCAR-5 ovarian): 15.8 µM
TGI (OVCAR-5 ovarian): 31.5 µM
GI50 (NCI/ADR-RES ovarian): 12.9 µM
TGI (NCI/ADR-RES ovarian): 30.5 µM
GI50 (A498 renal): 13.8 µM
TGI (A498 renal): 27.2 µM
GI50 (A549 NSCLC): 12.3 µM
TGI (A549 NSCLC): 31.1 µM
GI50 (NCI-H23 lung): 14 µM
TGI (NCI-H23 lung): 28.6 µM

COc1cc2c3c(n(CCCN4CCC(N)CC4)c(=O)c2cc1OC)-c1cc2c(cc1C3=O)OCO2
GI50 (786-0 renal): 0.763 µM
TGI (786-0 renal): 2.38 µM
GI50 (PC-3 prostate): 0.302 µM
TGI (PC-3 prostate): 2.11 µM
GI50 (NCI-H460 lung): 0.184 µM
TGI (NCI-H460 lung): 0.858 µM
GI50 (LOX IMVI melanoma): 0.298 µM
TGI (LOX IMVI melanoma): 1.02 µM
GI50 (M14 melanoma): 1.34 µM
TGI (M14 melanoma): 5.23 µM
GI50 (OVCAR-5 ovarian): 1.45 µM
TGI (OVCAR-5 ovarian): 5.15 µM
GI50 (NCI/ADR-RES ovarian): 2.93 µM
TGI (NCI/ADR-RES ovarian): 20.8 µM
GI50 (A498 renal): 3.03 µM
TGI (A498 renal): 10.8 µM
GI50 (A549 NSCLC): 0.278 µM
TGI (A549 NSCLC): 0.927 µM
GI50 (NCI-H23 lung): 0.475 µM
TGI (NCI-H23 lung): 1.6 µM

C=C(C)[C@@H]1CC[C@@]2(C(=O)O)CC[C@]3(C)C(CCC4[C@@]5(C)CCC(OS(=O)(=O)c6ccccc6)C(C)(C)C5CC[C@]43C)C12 (stereo not given in full)
GI50 (786-0 renal): 4.73 µM
TGI (786-0 renal): 19 µM
GI50 (PC-3 prostate): 1.5 µM
TGI (PC-3 prostate): 35.8 µM
GI50 (NCI-H460 lung): 3.36 µM
TGI (NCI-H460 lung): 15.5 µM
GI50 (LOX IMVI melanoma): 5.99 µM
TGI (LOX IMVI melanoma): 18.6 µM
GI50 (M14 melanoma): 11.2 µM
TGI (M14 melanoma): 25.1 µM
GI50 (OVCAR-5 ovarian): 9.44 µM
TGI (OVCAR-5 ovarian): 28.7 µM
GI50 (NCI/ADR-RES ovarian): 3.52 µM
TGI (NCI/ADR-RES ovarian): 18 µM
GI50 (A498 renal): 4.68 µM
TGI (A498 renal): 20.6 µM
GI50 (A549 NSCLC): 2.44 µM
TGI (A549 NSCLC): 17.7 µM
GI50 (NCI-H23 lung): 3.28 µM
TGI (NCI-H23 lung): 15.5 µM
